Test results published in patent US11339130B1 (Blade Therapeutics, Inc., priority 2016, dated 2022).

What was measured:
Type in all cases: biochemical
[1] = biological target: T1, Human Calpain 1/NS1 (Homo sapiens, UniProt P07384); assay: Calpain inhibition continuous fluorescence (FRET) assay, Human Calpain 1/NS1; conditions: Column A; read-out: Human Calpain 1/NS1 IC50
T1 sequence (P07384 1-714): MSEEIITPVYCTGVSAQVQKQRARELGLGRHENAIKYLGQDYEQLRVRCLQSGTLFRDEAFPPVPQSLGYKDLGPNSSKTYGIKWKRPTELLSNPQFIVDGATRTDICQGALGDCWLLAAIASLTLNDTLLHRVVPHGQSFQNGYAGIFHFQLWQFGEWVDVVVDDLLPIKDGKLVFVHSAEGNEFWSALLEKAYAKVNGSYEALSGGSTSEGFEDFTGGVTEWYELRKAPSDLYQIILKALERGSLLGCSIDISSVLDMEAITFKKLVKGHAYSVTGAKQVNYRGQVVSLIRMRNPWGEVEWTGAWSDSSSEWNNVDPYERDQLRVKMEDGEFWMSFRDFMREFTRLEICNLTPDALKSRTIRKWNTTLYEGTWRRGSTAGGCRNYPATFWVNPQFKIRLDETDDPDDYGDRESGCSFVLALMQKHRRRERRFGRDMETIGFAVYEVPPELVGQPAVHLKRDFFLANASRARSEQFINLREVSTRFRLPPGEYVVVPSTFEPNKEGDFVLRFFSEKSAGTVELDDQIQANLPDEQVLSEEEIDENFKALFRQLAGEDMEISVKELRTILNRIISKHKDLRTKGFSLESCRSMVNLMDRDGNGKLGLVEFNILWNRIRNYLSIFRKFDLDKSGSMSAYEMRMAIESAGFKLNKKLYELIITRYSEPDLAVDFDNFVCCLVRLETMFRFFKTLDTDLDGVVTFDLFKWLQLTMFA
T1 sequence (P04632 1-268 partner): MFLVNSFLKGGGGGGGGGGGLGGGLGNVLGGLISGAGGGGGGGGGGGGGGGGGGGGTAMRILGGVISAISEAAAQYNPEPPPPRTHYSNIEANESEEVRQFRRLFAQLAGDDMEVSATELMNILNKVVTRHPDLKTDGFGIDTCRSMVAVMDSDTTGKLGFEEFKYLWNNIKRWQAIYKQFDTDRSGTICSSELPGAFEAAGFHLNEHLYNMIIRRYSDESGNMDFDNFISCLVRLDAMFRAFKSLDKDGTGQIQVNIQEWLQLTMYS
In short: (§1)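 Human calpains 1, 2 and 9 preincubated with inhibitor at 25 °C in 50 mM Tris pH 7.5, 100 mM NaCl, 1 mM DTT; reaction started with 5-FAM/QXL 520 FRET peptide plus CaCl2 for activation. Fluorescence (490/520 nm) followed 10 min; rates from 1-5 min slopes fitted to 4-parameter logistic for IC50.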

[2] = biological target: T2, Human Calpain 2/NS1 (Homo sapiens, UniProt P17655); assay: Calpain inhibition continuous fluorescence (FRET) assay, Human Calpain 2/NS1; conditions: Column B; read-out: Human Calpain 2/NS1 IC50
T2 sequence (P17655 1-700): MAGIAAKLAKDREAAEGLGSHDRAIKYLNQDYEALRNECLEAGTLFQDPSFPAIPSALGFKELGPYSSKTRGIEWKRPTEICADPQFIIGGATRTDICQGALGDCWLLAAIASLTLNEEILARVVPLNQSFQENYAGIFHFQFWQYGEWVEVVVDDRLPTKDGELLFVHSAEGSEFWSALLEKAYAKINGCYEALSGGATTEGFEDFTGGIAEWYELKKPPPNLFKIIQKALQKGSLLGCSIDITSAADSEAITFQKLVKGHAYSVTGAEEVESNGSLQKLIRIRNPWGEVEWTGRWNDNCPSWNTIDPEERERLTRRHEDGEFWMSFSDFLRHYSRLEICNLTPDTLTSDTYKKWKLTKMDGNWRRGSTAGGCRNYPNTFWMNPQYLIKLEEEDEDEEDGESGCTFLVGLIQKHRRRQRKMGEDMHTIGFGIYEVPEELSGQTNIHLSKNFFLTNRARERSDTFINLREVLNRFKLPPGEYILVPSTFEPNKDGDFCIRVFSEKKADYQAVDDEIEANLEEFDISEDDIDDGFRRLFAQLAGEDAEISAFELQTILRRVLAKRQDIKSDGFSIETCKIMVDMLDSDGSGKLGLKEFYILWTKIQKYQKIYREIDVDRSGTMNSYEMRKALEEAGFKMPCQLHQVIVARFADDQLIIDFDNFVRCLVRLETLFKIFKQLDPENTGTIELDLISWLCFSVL
T2 sequence (P04632 1-268 partner): T1 sequence (P04632 1-268 partner)
In short: as §1

[3] = biological target: T3, Human Calpain 9/NS1 (Homo sapiens, UniProt O14815); assay: Calpain inhibition continuous fluorescence (FRET) assay, Human Calpain 9/NS1; conditions: Column C; read-out: Human Calpain 9/NS1 IC50
T3 sequence (O14815 1-690): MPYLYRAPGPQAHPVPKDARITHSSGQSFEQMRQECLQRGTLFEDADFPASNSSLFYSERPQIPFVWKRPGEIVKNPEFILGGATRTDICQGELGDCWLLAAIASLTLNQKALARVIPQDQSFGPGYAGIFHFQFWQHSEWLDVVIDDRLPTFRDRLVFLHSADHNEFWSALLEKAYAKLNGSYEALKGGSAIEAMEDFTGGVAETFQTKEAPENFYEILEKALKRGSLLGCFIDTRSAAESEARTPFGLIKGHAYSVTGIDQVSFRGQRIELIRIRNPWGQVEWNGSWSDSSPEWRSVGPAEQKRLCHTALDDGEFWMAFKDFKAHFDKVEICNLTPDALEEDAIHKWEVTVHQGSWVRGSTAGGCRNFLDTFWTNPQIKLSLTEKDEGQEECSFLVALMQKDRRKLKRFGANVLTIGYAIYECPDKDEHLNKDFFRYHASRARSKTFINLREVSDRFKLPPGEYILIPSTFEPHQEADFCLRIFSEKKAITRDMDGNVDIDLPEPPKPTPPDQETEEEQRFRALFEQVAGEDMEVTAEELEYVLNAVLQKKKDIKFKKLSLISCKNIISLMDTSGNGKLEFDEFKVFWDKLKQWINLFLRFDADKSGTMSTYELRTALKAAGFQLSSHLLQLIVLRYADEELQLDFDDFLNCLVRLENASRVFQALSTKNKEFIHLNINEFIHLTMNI
T3 sequence (P04632 1-268 partner): T1 sequence (P04632 1-268 partner)
In short: as §1

IC50 [1] [µM] | IC50 [2] [µM] | IC50 [3] [µM] | SMILES
< 3 | < 3 | 3 to 10 | Cn1cc(C(=O)N[C@@H](Cc2ccccc2)C(=O)C(N)=O)c(Br)n1 [Compound 196, (S)—N-(4-amino-3,4-dioxo-1-phenylbutan-2-yl)-3-bromo-1-methyl-1H-pyrazole-4-carboxamide]
> 10 | > 10 | > 10 | O=C(NC1CC1)C(=O)[C@H](Cc1ccccc1)NC(=O)c1nn[nH]c1-c1ccccc1 [Compound 204, (S)—N-(4-(cyclopropylamino)-3,4-dioxo-1-phenylbutan-2-yl)-5-phenyl-1H-1,2,3-triazole-4-carboxamide]
< 3 | > 10 | > 10 | Cc1cc(C(F)(F)F)cc(-n2nc(C)cc2C(=O)N[C@@H](Cc2ccccc2)C(=O)C(=O)NC2CC2)n1 [Compound 206, (S)—N-(4-(cyclopropylamino)-3,4-dioxo-1-phenylbutan-2-yl)-3-methyl-1-(6-methyl-4-(trifluoromethyl)pyridin-2-yl)-1H-pyrazole-5-carboxamide]
< 3 | < 3 | < 3 | Cc1cc(C(=O)N[C@@H](Cc2ccccc2)C(=O)C(N)=O)n(-c2nccs2)n1 [Compound 215, (S)—N-(4-amino-3,4-dioxo-1-phenylbutan-2-yl)-3-methyl-1-(thiazol-2-yl)-1H-pyrazole-5-carboxamide]
< 3 | < 3 | 3 to 10 | NC(=O)C(=O)[C@H](Cc1ccccc1)NC(=O)[C@@H]1C[C@@H](OCc2ccccc2)CN1c1ccccc1 [Compound 220, (2S,4R)—N—((S)-4-amino-3,4-dioxo-1-phenylbutan-2-yl)-4-(benzyloxy)-1-phenylpyrrolidine-2-carboxamide]
< 3 | < 3 | < 3 | Cc1cc(C(F)(F)F)cc(-n2nc(C)cc2C(=O)N[C@@H](Cc2ccccc2)C(=O)C(N)=O)n1 [Compound 234, (S)—N-(4-amino-3,4-dioxo-1-phenylbutan-2-yl)-3-methyl-1-(6-methyl-4-(trifluoromethyl)pyridin-2-yl)-1H-pyrazole-5-carboxamide]

Second part, the molecule before the results:

SMILES | IC50 [1] [µM] | IC50 [2] [µM] | IC50 [3] [µM]
O=C(NC1CC1)C(=O)[C@H](Cc1ccccc1)NC(=O)c1cncn1-c1ccc(-c2ccccc2)nn1 [Compound 201, (S)—N-(4-(cyclopropylamino)-3,4-dioxo-1-phenylbutan-2-yl)-1-(6-phenylpyridazin-3-yl)-1H-imidazole-5-carboxamide] | < 3 | < 3 | 3 to 10
Cc1noc(-c2ccccc2)c1C(=O)N[C@@H](CCc1ccccc1)C(=O)C(N)=O [Compound 205, (S)—N-(1-amino-1,2-dioxo-5-phenylpentan-3-yl)-3-methyl-5-phenylisoxazole-4-carboxamide] | < 3 | < 3 | < 3
Cc1cc(C(=O)N[C@@H](Cc2ccccc2)C(=O)C(N)=O)n(-c2ccncc2)n1 [Compound 209, (S)—N-(4-amino-3,4-dioxo-1-phenylbutan-2-yl)-3-methyl-1-(pyridin-4-yl)-1H-pyrazole-5-carboxamide] | < 3 | < 3 | < 3
Cc1noc(-n2ccc(-c3ccccc3)n2)c1C(=O)N[C@@H](Cc1ccccc1)C(=O)C(N)=O [Compound 211, (S)—N-(4-amino-3,4-dioxo-1-phenylbutan-2-yl)-3-methyl-5-(3-phenyl-1H-pyrazol-1-yl)isoxazole-4-carboxamide] | < 3 | < 3 | < 3
NC(=O)C(=O)[C@H](Cc1ccccc1)NC(=O)c1c(Cl)nsc1-c1ccccc1 [Compound 213, (S)—N-(4-amino-3,4-dioxo-1-phenylbutan-2-yl)-3-chloro-5-phenylisothiazole-4-carboxamide] | < 3 | < 3 | < 3
Cc1cc(C(=O)N[C@@H](Cc2ccccc2)C(=O)C(N)=O)nn1-c1nccs1 [Compound 219, (S)—N-(4-amino-3,4-dioxo-1-phenylbutan-2-yl)-5-methyl-1-(thiazol-2-yl)-1H-pyrazole-3-carboxamide] | 3 to 10 | 3 to 10 | 3 to 10
Cc1noc(-c2ccccc2)c1C(=O)N[C@@H](Cc1ccccc1)C(=O)C(=O)NCc1cccnc1 [Compound 224, (S)—N-(3,4-dioxo-1-phenyl-4-((pyridin-3-ylmethyl)amino)butan-2-yl)-3-methyl-5-phenylisoxazole-4-carboxamide] | < 3 | 3 to 10 | 3 to 10
Cc1noc(-c2ccccc2)c1C(=O)N[C@@H](Cc1ccccc1)C(=O)C(=O)NCc1ccc2c(c1)OCO2 [Compound 225, (S)—N-(4-((benzo[d][1,3]dioxol-5-ylmethyl)amino)-3,4-dioxo-1-phenylbutan-2-yl)-3-methyl-5-phenylisoxazole-4-carboxamide] | < 3 | > 10 | > 10
Cc1cc(-n2nc(C(=O)N[C@@H](Cc3ccccc3)C(=O)C(N)=O)cc2C)nc(C)n1 [Compound 232, (S)—N-(4-amino-3,4-dioxo-1-phenylbutan-2-yl)-1-(2,6-dimethylpyrimidin-4-yl)-5-methyl-1H-pyrazole-3-carboxamide] | > 10 | > 10 | 3 to 10
Cc1cc(C(=O)N[C@@H](Cc2ccccc2)C(=O)C(N)=O)n(-c2ccc(-c3ccccc3)nn2)n1 [Compound 233, (S)—N-(4-amino-3,4-dioxo-1-phenylbutan-2-yl)-3-methyl-1-(6-phenylpyridazin-3-yl)-1H-pyrazole-5-carboxamide] | < 3 | < 3 | 3 to 10
Cc1cc(-n2nc(C)cc2C(=O)N[C@@H](Cc2ccccc2)C(=O)C(N)=O)nc(C)n1 [Compound 235, (S)—N-(4-amino-3,4-dioxo-1-phenylbutan-2-yl)-1-(2,6-dimethylpyrimidin-4-yl)-3-methyl-1H-pyrazole-5-carboxamide] | < 3 | < 3 | < 3
Cn1ncc(-c2ccccc2)c1C(=O)N[C@@H](Cc1ccccc1)C(=O)C(N)=O [Compound 240] | < 3 | < 3 | < 3
